Results as given in patent publication EP1561465A2, “Methods of use of fluoroquinolone compounds against bacteria” (LG Life Sciences, Ltd., priority 1999, dated 2001).
Converted amounts (≈) assume the structure as drawn. Where two headings read alike, the source gives them in different places.

Legend:
Assay type in all cases: cell-based
Staphylococcus aureus = test: MIC by agar macrodilution (NCCLS), 373 Gram positive isolates, Athens 1998
Enterococcus faecalis = test: as above
Streptococcus pneumoniae = test: MIC by E-test (broth microdilution for gemifloxacin), 107 pneumococcal carrier isolates, Athens 1998; details: for MIC Range: in µg/mL (unit assumed)
Experimental: Susceptibility testing was performed by agar dilution or epsilometer method (E-test), as recommended by the NCCLS. […] The susceptibility profiles of the strains were assessed using the Epsilometer method (E-test). The isolates were subdivided into two groups according to their penicillin susceptibility patterns (penicillin-susceptible and penicillin-intermediate.

[1] = continuation of the preceding table (title not shown), 14 isolates

With `CN[C@H](CC(C)C)C(=O)N[C@H]1C(=O)N[C@@H](CC(N)=O)C(=O)N[C@H]2C(=O)N[C@H]3C(=O)N[C@H](C(=O)N[C@H](C(=O)O)c4cc(O)cc(O)c4-c4cc3ccc4O)[C@H](O)c3ccc(c(Cl)c3)Oc3cc2cc(c3O[C@@H]2O[C@H](CO)[C@@H](O)[C@H](O)[C@H]2O[C@H]2C[C@](C)(N)[C@H](O)[C@H](C)O2)Oc2ccc(cc2Cl)[C@H]1O` [Vancomycin] the “MIC Range” value (Staphylococcus aureus; Methicillin-susceptible Staphylococcus aureus (n = 85)) was 0.5 to 2 µg/mL, the MIC50 (Staphylococcus aureus; Staphylococcus aureus) was 1 µg/mL (≈ 0.69 µM) and the MIC90 (Staphylococcus aureus; Staphylococcus aureus) was 2 µg/mL (≈ 1.38 µM). For the same compound, the “MIC distribution (µg/ml) 0.03” value (Enterococcus faecalis) was 0, the “MIC distribution (µg/ml) 0.06” value (Enterococcus faecalis) was 0 and the “MIC distribution (µg/ml) 0.125” value (Enterococcus faecalis) was 0. For the same compound, the “MIC distribution (µg/ml) 0.25” value (Enterococcus faecalis) was 0, the “MIC distribution (µg/ml) 0.5” value (Enterococcus faecalis) was 0 and the “MIC distribution (µg/ml) 1” value (Enterococcus faecalis) was 4. The “MIC distribution (µg/ml) 4” value (Enterococcus faecalis) was 6, the “MIC distribution (µg/ml) 8” value (Enterococcus faecalis) was 0 and the “MIC distribution (µg/ml) 16” value (Enterococcus faecalis) was 0. The “MIC distribution (µg/ml) ≤0.015” value (Enterococcus faecalis) was 0, the MIC50 (Enterococcus faecalis; Enterococcus faecalis) was 2 µg/mL (≈ 1.38 µM) and the MIC90 (Enterococcus faecalis; Enterococcus faecalis) was 4 µg/mL (≈ 2.76 µM). The “MIC50” value (Enterococcus faecalis; [1]) was 2 µg/mL (≈ 1.38 µM), the “MIC90” value (Enterococcus faecalis; [1]) was 4 µg/mL (≈ 2.76 µM) and the “MIC Range” value (Enterococcus faecalis; [1]) was 1 to 4 µg/mL. For the same compound, the “MIC distribution (µg/ml) 1” value (Enterococcus faecalis; number of isolates at MIC 1 µg/ml, n = 81) was 10, the “MIC distribution (µg/ml) 4” value (Enterococcus faecalis; number of isolates at MIC 4 µg/ml, n = 81) was 40 and the MIC Range (Streptococcus pneumoniae; Penicillin-intermediate S. pneumoniae (n = 24), E-test) was 0.19-1.5. The MIC90 (Streptococcus pneumoniae; Penicillin-intermediate S. pneumoniae (n = 24), E-test, unit assumed) was 1 µg/mL (≈ 0.69 µM), the MIC Range (Streptococcus pneumoniae; Penicillin-susceptible S. pneumoniae (n = 107), E-test) was 0.064-2 and the MIC90 (Streptococcus pneumoniae; Streptococcus pneumoniae) was 1 µg/mL (≈ 0.69 µM). The MIC50 (Streptococcus pneumoniae; Streptococcus pneumoniae, Penicillin-intermediate S. pneumoniae (n = 24), E-test) was 0.75 µg/mL (≈ 0.518 µM) and the MIC50 (Streptococcus pneumoniae; Streptococcus pneumoniae, Penicillin-susceptible S. pneumoniae (n = 107), E-test) was 0.5 µg/mL (≈ 0.345 µM).
